{"source": "paper PMC5354587", "about": "“Ergosterone-coupled Triazol molecules trigger mitochondrial dysfunction, oxidative stress, and acidocalcisomal Ca^2+ release in Leishmania mexicana promastigotes” (Microbial Cell, 2015)", "type_in_all_cases": "cell-based", "key": {"human dermic fibroblasts": {"tested_on": "human dermic fibroblasts", "assay": "Half-inhibitory concentration on human fibroblasts, modified MTT method", "details": "Fibroblast, 72 hours", "method": "(§1) Promastigotes of Leishmania mexicana Bel 21 strain were cultured at 26°C in Liver Infusion Tryptone (LIT) medium supplemented with 10% fetal bovine serum (Internegocios). Primary cultures of human dermic fibroblasts were performed at 37°C in DMEN medium (Sigma) supplemented with 10% fetal bovine serum in a CO2 incubator at 5% CO2.\n(§2) To determine the IC50 in parasites and human fibroblasts the protocol described by was followed. Briefly, a suspension of 2 x 10^6 parasites per mL^-1 or 5 x 10^3 fibroblasts per well were transferred into 96 well plates and different concentrations of the compounds were added. Plates were incubated under the corresponding culture conditions for 48 or 72 hours for L. mexicana or human fibroblasts, respectively. Thereafter, parasites plates were centrifuged prior to the elimination of the supernatant. Cell viability was measured by the modified MTT method, where cells were incubated with the MTT substrate at 0.2 mg x mL^-1 for 4 hours. Colored crystals formed were solubilized in DMSO and absorbance was measured at 570 nm. IC50 was obtained from a dose response curve using the software OriginLab Pro 6.0^©."}, "[1]": {"tested_on": "Leishmania mexicana promastigotes", "assay": "DNA content analysis with propidium iodide (cell cycle, SubG1)", "details": "1.4 μM Erg-GTr or 2.3 μM Erg-GTr2, 48 hours", "method": "In order to analyze if Erg-GTr molecules influence the normal cell cycle distribution, the DNA content of treated cells was evaluated using propidium iodide.\nFigure 4 FIGURE 4: Analysis of the DNA content in L. mexicana promastigotes. Treated (1.4 μM Erg-GTr or 2.3 μM Erg-GTr2) or control cells (DMSO) were harvested at different time points and prepared for determination of DNA content. Acquisition was performed in arithmetic scale to obtain G1 and G2/M peaks and in logarithmic scale to earn the subG1 peak. (A) Percentage of cells in the different phases of the cell cycle after 24 and 48 hours treatment. (B) SubG1 peak in percentage after 16, 24 and 48 hours drug contact. Quantification was carried out using the WinMDI software. The bars represent the mean+/-S.D. of three individual cultures measured at each time point.\nPropidium iodide was used to determinate the DNA content in parasites after treatment. 1 x 10^6 parasites were washed with PBS and resuspended in 100 μL lysis buffer (7.7 mM Na2HPO4, 2.3 mM KH2PO4) containing 6 μM digitonin. Samples were incubated at 4°C for 30 minutes. Finally, 400 μL staining buffer (20 μg/mL propidium iodide in PBS) was added to each sample. Samples were kept on ice in the dark until their analysis in the cytometer (Beckman Coulter)."}, "[2]": {"tested_on": "Leishmania mexicana promastigotes", "assay": "Annexin V-AlexaFluor488/propidium iodide double staining, flow cytometry", "details": "Erg-GTr 1.4 μM or Erg-GTr2 2.3 μM", "method": "The effect of Erg-GTr and Erg-GTr2 was further analyzed to determine the cell death mechanism. Asymmetry of the plasma membrane is loosed when cell death processes are activated. The Annexin V-AlexaFluor488/propidium iodide double staining was used to detect phosphatidylserine (PS) in the outer leaflet of the plasma membrane using flow cytometry after parasite treatment. Cells were incubated for 24 and 48 hours with Erg-GTr (1.4 μM) or Erg-GTr2 (2.3 μM). […] At this time, the integrity of the plasma membrane was still intact, as evidenced by a low PI staining (5% or lower). After 48 hours, the percentage of Annexin V positive cells increased to reach more than 60% (Erg-GTr) or was maintained at around 40% in the case of Erg-GTr2 (Figure 2B). […] This phenomenon has been reported as a criterium of the late stage of cell death processes.\nThe annexin V-AlexaFluor 488 (Invitrogen) was used following the manufacture recommendations. Briefly, 1 x 10^6 parasites were washed with PBS and incubated with annexin V and propidium iodide (0.05 mg x mL^-1) in 100 μL binding buffer for 15 minutes. Final volume was adjusted at 500 μL and samples were immediately analyzed in a Beckman Coulter Gallios Cytometer."}, "[3]": {"tested_on": "Leishmania mexicana promastigotes", "assay": "Mitochondrial membrane potential, Mitotracker Red CMXROS, flow cytometry", "details": "treatment up to 48 hours, flow cytometry", "method": "In order to determine the energetic state of the mitochondrion after parasites treatment, the compound Mitotraker Red CMXROS was used. As described in the Materials and Methods section, parasites were treated for 6, 16, 24, and 48 hours with each molecule at its IC50, then incubated with Mitotraker Red CMXROS (50 nM) for 30 minutes under culture conditions, and finally analyzed by flow cytometry. […] Additionally, to rule out if Erg itself (the non-azole fraction of the conjugates) could be responsible for this hyperpolarization, parasites were treated with this compound and ΔΨmit was monitored for up to 48 hours by flow cytometry.\nMitotracker CMX Red(Invitrogen) was used to determine the mitochondrial membrane potential (Ψmit) of treated parasites. After 6, 16, 24, and 48 hours treatment, cells were incubated in culture medium with 50 nM Mitotracker CMX Red for 30 minutes at 26°C in the dark. Thereafter, parasites were washed twice with PBS, resuspended in 1 mL buffer, and analyzed using a cytometer (Beckman Coulter). Parasites incubated with valinomycin (500 nM for 30 minutes) were used as positive control. To evaluate the effect of ergosterone coupled molecules on the mitochondrial membrane potential immediately after molecule addition we used the fluorophore rhodamine-123, a mitochondrion-specific cationic dye, which distributes across the inner mitochondrial membranes strictly according to their membrane potential, as described before. Briefly, 1 x 10^7 parasites were washed twice with rhodamine 123 loading buffer (20 mM Tris-HCl, 130 mM KCl, 1 mM MgCl2, and 2 mM KH2PO4) and incubated with 20 μM rhodamine 123 for 45 minutes at 29°C under agitation. Samples were washed twice, resuspended in 500 μL of the same buffer, and transferred to a quartz cuvette. Fluorescence (ex 488 nm and em 530 nm) was registered in a Hitachi F-7000 Spectrofluorimeter. FCCP was used as control for mitochondrial membrane depolarization."}, "[4]": {"tested_on": "Leishmania mexicana promastigotes", "assay": "Half-inhibitory concentration on parasites, modified MTT method", "method": "Parasites were treated with different concentrations of the synthesized compounds for 48 hours to determine their cytotoxic effect. A dose dependent growth inhibition was observed after this time.\nas §1, §2"}}}
{"smiles": "CC(C)C(C)C=CC(C)C1CCC2C3=CC(=NNC(=O)n4cnnc4)C4(O)CC(=O)CCC4(C)C3CCC21C", "note": "(stereo not drawn) [Erg-GTr, [1,2,4]triazole-4-carboxylic acid [5-hydroxy-10,13-dimethyl-3-oxo-17-(1,4,5-trimethyl-hex-2-enyl)-1,2,3,4,5,9,10,11,12,13,14,15,16,17-tetradecahydro-cyclopenta[a]phenanthren-6-ylidene]-hydrazide]", "values": [{"measurement": "IC50", "setting": "human dermic fibroblasts", "value": "13.7 ± 1.9", "unit": "µM"}, {"measurement": "cell cycle arrest in the G2/M phase", "setting": "[1]", "value": "moderate"}, {"measurement": "PI staining", "setting": "[2]; 24 hours", "value": "≤ 5", "unit": "%"}, {"measurement": "PS exposure, percentage of the cell population", "setting": "[2]; 24 hours", "value": 40.2, "unit": "%"}, {"measurement": "PI positive cells", "setting": "[2]; 48 hours", "value": 31, "unit": "%"}, {"measurement": "percentage of Annexin V positive cells", "setting": "[2]; 48 hours", "value": "more than 60%"}, {"measurement": "effect on inner mitochondrial membrane potential (ΔΨmit)", "setting": "[3]", "value": "hyperpolarize"}, {"measurement": "IC50", "setting": "[4]; Leishmania mexicana, 48 h, read-out: IC50 on L. mexicana promastigotes", "value": "1.4 ± 0.4", "unit": "µM"}, {"measurement": "Selectivity index", "setting": "[4]; promastigotes compared to human dermic fibroblasts", "value": 9.8}]}
